Results on 1 compound are retold here after patent publication US10265327B2, “V1A antagonists to treat phase shift sleep disorders” (Hoffmann-La Roche Inc., priority 2013, dated 2019).

Assay [1] addresses T1, human V1a receptor (hV1a) (Homo sapiens, UniProt P37288).
T1 construct: expressed in transfected cells; host or cells: HEK cells, transient transfection; membrane preparation
The assay is described as follows: Radioligand binding assay (3H-AVP, SPA), human V1a. Conditions: 1 nM 3H-AVP. Here is the method:
(§1) The test compound was initially dissolved in DMSO at a concentration of 10 mM. Subsequent dilutions were made in assay buffer with a maximum final concentration of 0.2% DMSO.
(§2) Recombinant vasopressin V1a (human: hV1a; mouse: mV1a), V1b (human: hV1b) were independently expressed in human embryonic kidney (HEK) cells using transient transfection. The cell membranes expressing the various receptors were prepared by homogenizing (using Polytron homogenizer) the cell culture pellet in lysis buffer (50 mM HEPES, 1 mM EDTA, 10 mM MgCl2, pH 7.4 with protease inhibitors), then centrifuging the resulting suspension at 500 g for 20 min at 4° C. The supernatant was subsequently re-centrifuged at 43,000 g for 1 hour at 4° C. […] The concentration of protein was determined, and the membranes were aliquoted and stored at −80° C. until further use.
(§3) All radioligand binding assays were carried out in 96-well plates in the presence of 1 nM ^3H-AVP (vasopressin) radioligand, and 10 concentrations of test compound (ranging from 27 μM-1 nM or 2.7 μM-0.1 nM for hV1a binding). […] Filtration assays were terminated by rapid filtration under vacuum through GF/C filters, presoaked for 5 min with buffer B containing Tris 50 mM, MgCl2 5 mM, 0.1% BSA (pH 7.4), followed by 5×0.4 ml washes of ice-cold buffer B. For both SPA and filtration plates, bound ligand was determined using a Packard Topcount scintillation counter. […]

Assay [2] addresses T2, mouse V1a receptor (mV1a) (Mus musculus, UniProt Q62463).
T2 construct: expressed in transfected cells; host or cells: HEK cells, transient transfection; membrane preparation
The assay can be described thus: Radioligand binding assay (3H-AVP, filtration), mouse V1a. The conditions noted are these: Ki ± SEM (n); 1 nM 3H-AVP. The method, then: as §1, §2, §3

The target in assay [3] is T3, human V1b receptor (hV1b) (Homo sapiens, UniProt P47901).
T3 construct: expressed in transfected cells; host or cells: HEK cells, transient transfection; membrane preparation
T3 sequence (P47901 1-424): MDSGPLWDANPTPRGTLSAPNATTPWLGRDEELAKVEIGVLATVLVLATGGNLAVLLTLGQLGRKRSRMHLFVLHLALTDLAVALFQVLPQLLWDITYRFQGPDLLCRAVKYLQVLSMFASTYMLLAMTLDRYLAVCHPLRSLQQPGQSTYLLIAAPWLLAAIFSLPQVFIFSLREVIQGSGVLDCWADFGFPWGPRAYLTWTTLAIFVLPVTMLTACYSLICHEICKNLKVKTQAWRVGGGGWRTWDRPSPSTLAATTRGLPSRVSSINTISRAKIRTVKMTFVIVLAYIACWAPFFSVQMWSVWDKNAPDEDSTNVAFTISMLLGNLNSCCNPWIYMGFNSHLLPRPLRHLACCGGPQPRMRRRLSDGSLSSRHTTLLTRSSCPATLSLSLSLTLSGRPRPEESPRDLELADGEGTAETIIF
The assay can be described thus: Radioligand binding assay (3H-AVP, SPA), human V1b. Conditions: (n); 1 nM 3H-AVP; read-out: pKi V1b Human (converted). The method, then: as §1, §2, §3

Where two headings read alike, the source gives them in different places.

T1 sequence (P37288 whole entry): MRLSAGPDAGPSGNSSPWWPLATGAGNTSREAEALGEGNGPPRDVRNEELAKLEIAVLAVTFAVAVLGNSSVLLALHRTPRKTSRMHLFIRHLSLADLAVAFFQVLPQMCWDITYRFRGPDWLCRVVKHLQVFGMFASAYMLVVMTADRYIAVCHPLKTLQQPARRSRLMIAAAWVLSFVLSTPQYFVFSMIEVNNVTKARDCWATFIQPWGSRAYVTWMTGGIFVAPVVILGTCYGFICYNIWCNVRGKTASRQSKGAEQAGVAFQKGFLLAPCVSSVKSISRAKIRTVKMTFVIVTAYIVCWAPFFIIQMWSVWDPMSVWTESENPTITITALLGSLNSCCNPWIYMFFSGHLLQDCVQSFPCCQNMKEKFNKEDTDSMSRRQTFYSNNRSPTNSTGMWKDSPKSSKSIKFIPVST
T2 sequence (Q62463 whole entry): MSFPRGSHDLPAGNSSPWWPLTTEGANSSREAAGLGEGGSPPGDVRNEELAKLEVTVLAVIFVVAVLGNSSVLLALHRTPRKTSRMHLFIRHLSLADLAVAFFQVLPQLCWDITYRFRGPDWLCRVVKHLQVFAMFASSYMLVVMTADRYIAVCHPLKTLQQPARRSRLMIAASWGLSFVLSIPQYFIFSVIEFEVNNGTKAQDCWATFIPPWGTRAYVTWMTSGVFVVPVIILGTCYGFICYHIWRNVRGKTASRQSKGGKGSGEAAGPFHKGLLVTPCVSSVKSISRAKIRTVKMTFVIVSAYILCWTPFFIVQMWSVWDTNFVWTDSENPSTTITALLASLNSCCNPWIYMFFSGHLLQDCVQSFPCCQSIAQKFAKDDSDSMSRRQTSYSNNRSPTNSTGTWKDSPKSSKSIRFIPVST

In the case of `CN1Cc2cc(Cl)ccc2-n2c(nnc2[C@H]2CC[C@H](Oc3ccccn3)CC2)C1` [Example 1, trans-8-chloro-5-methyl-1-(4-pyridin-2-yloxycyclohexyl)-4,6-dihydro-[1,2,4]triazolo[4,3-a][1,4]benzodiazepine], the Ki is 0.7 ± 0.1 nM in assay [1] (Ki ± SEM (n), read-out: Ki V1a Human); 0.776 nM in assay [1] (pKi ± SEM (n), read-out: pKi V1a Human (converted)); 77 ± 2 nM in assay [2]; above 31600 nM in assay [3].
